Results on one substance are retold here after patent US6194173A, “Binding proteins for phosphoinositides, GRP1 or general receptor 1 for phophoinositide” (priority 1999, dated 2001).

Assay [1] deals with T1, GRP (Mus musculus, UniProt O08967).
T1 construct: GST (N, cleaved yes); made in house; host or cells: GRP from pGEX-4T; ARF1 from baculovirus-infected Sf-9 cells
T1 sequence (O08967 1-399): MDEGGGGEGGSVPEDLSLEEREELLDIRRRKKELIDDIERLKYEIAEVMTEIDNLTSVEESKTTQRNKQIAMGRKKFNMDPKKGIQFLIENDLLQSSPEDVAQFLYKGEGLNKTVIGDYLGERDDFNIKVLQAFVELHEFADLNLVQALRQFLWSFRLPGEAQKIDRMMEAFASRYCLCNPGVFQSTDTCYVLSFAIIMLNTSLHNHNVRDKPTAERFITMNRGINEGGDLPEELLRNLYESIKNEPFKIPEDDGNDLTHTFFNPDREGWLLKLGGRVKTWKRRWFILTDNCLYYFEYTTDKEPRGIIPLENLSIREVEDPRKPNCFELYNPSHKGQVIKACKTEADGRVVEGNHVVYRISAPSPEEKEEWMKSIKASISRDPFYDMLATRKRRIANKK
The assay can be described thus: Effect of phosphoinositides on GRP-catalyzed ARF1 guanine nucleotide exchange. The assay is classed as biochemical. Particulars: for stimulation of ARF1 exchange activity in the presence of GRP: 25 μM lipid, 0.15 μM GRP.

Assay [2] relates to GRP Sec7 homology domain. The assay can be described thus: Effect of phosphoinositides on ARF1 exchange catalyzed by the GRP Sec7 domain. In kind it is biochemical, mouse. Particulars: 25 μM PtdIns(3,4,5)P3.
In assay [3] the target is T2, PH domain of GRP (Mus musculus, UniProt O08967).
T2 sequence (O08967 239-399): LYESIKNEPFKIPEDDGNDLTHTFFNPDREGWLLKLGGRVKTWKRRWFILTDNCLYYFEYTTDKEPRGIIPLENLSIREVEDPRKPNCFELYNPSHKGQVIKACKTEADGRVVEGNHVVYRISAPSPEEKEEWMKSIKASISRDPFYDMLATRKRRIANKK
The assay can be described thus: Competition for [3H]dioctanoyl PtdIns(3,4,5)P3 binding to the PH domain of GRP. Also on record: GST fused to the PH region of GRP (amino acids 239-399); made in house; host or cells: bacteria. To be noted: competition for [^3 H]dioctanoyl PtdIns(3,4,5)P3. As for the experimental part: Binding assays were performed as described in (Rameh, L. E. et al., J. Biol. Chem., In Press). Briefly, GST fused to the PH region of GRP (amino acids 239-399) was bound to glutathione immobilized on agarose beads (Sigma). Synthetic [^3 H]-labeled diotanoyl PtdIns(3,4,5)P3 was added, and after one hour the beads were separated from the supernatant by centrifugation. The amount of [^3 H]-PtdIns(3,4,5)P3 bound to the PH domain was calculated by subtracting the amount of free [^3 H] present in supernatants from GST-GRP from the amount of free [^3 H] in supernatants from control GST. The data was fitted to the equation [bound]=Bmax×[free]/(KD + [free]) by least squares curve fit. For the competition assays the beads containing the GST-fusion proteins were incubated with 2.5 μM[^3 H]-labeled dioctanoyl PtdIns(3,4,5)P3 bound was calculated based on the amount of [^3 H] bound to the beads in the absence of competitor. The total [^3 H] bound to the GST control was less then 0.5% of the total [^3 H] bound to GRP PH domain. The data was fitted to the equation % bound=100-n×L/Klapp +L) where n is the % specific binding, L is the concentration of unlabeled lipid added and Klapp is the apparent competitive dissociation constant. The rations of the apparent dissociation constants accurately reflect the ratios of the true dissociation constants under the present experimental conditions (Rameh, L. E. et al., J. Biol. Chem., In Press).
The data depicted in FIG. 8 indicate that receptor signaling through PI3-kinases, which generates PtdIns(3,4,5)P3, may specifically regulate ARF proteins through GRP. In order to further test this, the relative binding affinities of PtdIns(3,4,5)P3 versus PtdIns (4,5)P2, which is constitutively present in cell membranes, for the PH domain of GRP were determined. A GST fusion protein of the PH domain of GRP was incubated with various concentrations of synthetic [^3 H]dioctanoyl PtdIns(3,4,5)P3 and binding was determined (FIG. 9A). These experiments show high affinity binding of this polyphosphoinositide,with a calculated Kd=0.5 μM.

“Also recorded” adds a separate entry of the source.

“Phosphatidylinositol (3,4,5)-Trisphosphate [PtdIns(3,4,5)P3]”: in assay [1] (0.1 μM GRP1, 40 minutes), the “maximal activation of GRP-catalyzed ARF1 exchange” value is listed as 3-4 fold. Also, in assay [1] (0.1 μM GRP1, 40 minutes, read-out: half maximal stimulation of GRP-catalyzed ARF1 [^35 S]GTPγS binding), the EC50 was about 1 µM. The “stimulation of ARF1 exchange activity in the presence of GRP” value in assay [1] (0.05% cholate and 0.05% CHAPS (low negative charge)) is recorded as “selectively stimulated; also recorded: Selectivity”; in assay [1] (0.1% cholate (high negative charge)), “stimulated”. Besides, the “effect on ARF exchange activity catalyzed by the GRP Sec7 homology domain” value in assay [2] was “no effect”. In addition, the “KI(app), fold lower than for PtdIns(4,5)P2” value in assay [3] is listed as 10-20 fold.
